Results on 41 molecules are retold here after patent US8119563B2, “N-substituted azacycles” (FMC Corporation, priority 2003, dated 2012).

This data set relates to tobacco budworm (Heliothis virescens [Fabricius]). The experiment in a line: surface-treated diet test, insecticidal activity against tobacco budworm. The data set is classed as in vivo. Conditions: 0.25 millimoles of candidate insecticide on the surface of the diet, second instar larvae, five-day exposure; for Percent Mortality: compared to total number of insects infested; for Percent Growth Inhibition: inhibition of insect weight relative to untreated controls. Summed up:
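Second-instar larvae (~5 mg) were held five days at 25° C and 60% RH on artificial diet whose surface carried dried compound (0.25 millimolar standard rate; DMSO serial dilutions for rate series, six replicates each). Readouts: mortality and weight inhibition relative to DMSO-treated controls.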

Take `CCCOc1ccc(CN2CCC(O)(C(O)(c3ccc(OC(F)(F)F)cc3)c3ccc(OC(F)(F)F)cc3)CC2)cc1` [Compound 91]: the “Percent Mortality” value was 100% and the “Percent Growth Inhibition” value was 100%.
Take `[O-][N+]1(Cc2ccc(Oc3ccc(Cl)nn3)cc2)CCC(O)(C(c2ccc(C(F)(F)F)cc2)c2ccc(C(F)(F)F)cc2)CC1` (stereo not shown) [Compound 384]: the “Percent Mortality” value was 100% and the “Percent Growth Inhibition” value worked out at 100%.
For the molecule `[O-][N+]1(Cc2ccc(Oc3ncccn3)cc2)CCC(O)(C(c2ccc(Cl)cc2)c2ccc(OC(F)(F)F)cc2)CC1` (stereo not shown) [Compound 402], the “Percent Mortality” value was 100% and the “Percent Growth Inhibition” value came to 100%.
For the molecule `COCCON=Cc1ccc(C[N+]2([O-])CCC(O)(C(c3ccc(OC(F)(F)F)cc3)c3ccc(OC(F)(F)F)cc3)CC2)cc1` (stereo not shown) [Compound 344], the “Percent Mortality” value worked out at 100% and the “Percent Growth Inhibition” value is 100%.
On to `FC(F)(F)c1ccc(C(c2ccc(C(F)(F)F)cc2)C2(F)CCN(Cc3ccc(Oc4ccccn4)cc3)CC2)cc1` [Compound 193], for which the “Percent Mortality” value was 100% and the “Percent Growth Inhibition” value was found to be 100%.
With `[O-][N+]1(Cc2ccc(Oc3ccccn3)cc2)CCC(O)(C(c2ccc(OC(F)(F)F)cc2)c2ccc(Cl)cc2F)CC1` (stereo not shown) [Compound 463], the “Percent Mortality” value is recorded as 100% and the “Percent Growth Inhibition” value is reported as 100%.
As for `COCCON=Cc1ccc(CN2CCC(O)(C(c3ccc(OC(F)(F)F)cc3)c3ccc(OC(F)(F)F)cc3)CC2)cc1` [Compound 266], the “Percent Mortality” value amounted to 100% and the “Percent Growth Inhibition” value is 100%.
Take `OC1(C(c2ccc(OC(F)(F)F)cc2)c2ccc(OC(F)(F)F)cc2)CCN(Cc2ccc(C=NOCC(F)(F)F)cc2)CC1` [Compound 301]: the “Percent Mortality” value was found to be 100% and the “Percent Growth Inhibition” value turned out to be 100%.
For the molecule `Oc1ccc(CN2CCC(O)(C(c3ccc(C(F)(F)F)cc3)c3ccc(C(F)(F)F)cc3)CC2)cc1` [Compound 302], the “Percent Mortality” value is given as 17% and the “Percent Growth Inhibition” value amounted to 100%.
The like results for `CCn1nnc(-c2ccc(CN3CCC(O)(C(c4cccc(Cl)c4)c4cccc(Cl)c4)CC3)cc2)n1` [Compound 24] were, in that order, 0% and 98%.
Regarding `OC1(C(c2ccc(OC(F)(F)F)cc2)c2ccc(OC(F)(F)F)cc2)CCN(CCCOc2ccc(Cl)cc2)CC1` [Compound 473], the “Percent Mortality” value worked out at 100% and the “Percent Growth Inhibition” value is on record as 100%.
As to `[O-][N+]1(Cc2ccc(C=NOCC(F)(F)F)cc2)CCC(O)(C(c2ccc(OC(F)(F)F)cc2)c2ccc(OC(F)(F)F)cc2)CC1` (stereo not shown) [Compound 378], the “Percent Mortality” value turned out to be 100% and the “Percent Growth Inhibition” value was 100%.
Regarding `CCCCCCCC(=O)[O-].OC1(C(c2ccc(OC(F)(F)F)cc2)c2ccc(OC(F)(F)F)cc2)CC[N+](O)(Cc2ccc(Oc3ccccn3)cc2)CC1` (stereo not shown) [Compound 517], the “Percent Mortality” value worked out at 100% and the “Percent Growth Inhibition” value is 100%.
Regarding `COc1ccc(C(c2ccc(OC(F)(F)F)cc2)C2(O)CCN(Cc3ccc(Oc4ccccn4)cc3)CC2)cc1` (stereo not shown) [Compound 260], the “Percent Mortality” value was 100% and the “Percent Growth Inhibition” value worked out at 100%.
For `N#CCON=Cc1ccc(C[N+]2([O-])CCC(O)(C(c3ccc(OC(F)(F)F)cc3)c3ccc(OC(F)(F)F)cc3)CC2)cc1` (stereo not shown) [Compound 353], the “Percent Mortality” value stood at 100% and the “Percent Growth Inhibition” value came to 100%.
As to `O=Cc1ccc(CN2CCC(O)(C(O)(c3ccc(OC(F)(F)F)cc3)c3ccc(OC(F)(F)F)cc3)CC2)cc1` [Compound 418], the “Percent Mortality” value worked out at 0% and the “Percent Growth Inhibition” value was determined as 83%.
For `COCCOCCON=Cc1ccc(C[N+]2([O-])CCC(O)(C(c3ccc(OC(F)(F)F)cc3)c3ccc(OC(F)(F)F)cc3)CC2)cc1` (stereo not shown) [Compound 336], in that order: 100% and 100%.
For `[O-][N+]1(Cc2ccc(Oc3ccccn3)cc2)CCC(O)(C(c2ccc(OC(F)(F)F)cc2)c2ccccc2Cl)CC1` (stereo not shown) [Compound 459], in that order: 100% and 100%.
For the molecule `CON=C(Cl)c1ccc(C[N+]2([O-])CCC(O)(C(c3ccc(OC(F)(F)F)cc3)c3ccc(OC(F)(F)F)cc3)CC2)cc1` (stereo not shown) [Compound 355], the “Percent Mortality” value turned out to be 100% and the “Percent Growth Inhibition” value is recorded as 100%.
Turning to `O=C(Nc1ccc(CN2CCC(O)(C(c3ccc(C(F)(F)F)cc3)c3ccc(C(F)(F)F)cc3)CC2)cc1)OCC1CC1` [Compound 319], the “Percent Mortality” value is on record as 100% and the “Percent Growth Inhibition” value came out at 100%.
With `OC1(C(c2ccc(C(F)(F)F)cc2)c2ccc(Cl)c(Cl)c2)CCN(Cc2ccc(Oc3ncccn3)cc2)CC1` (stereo not shown) [Compound 9], the “Percent Mortality” value was 100% and the “Percent Growth Inhibition” value is 100%.
As for `CCCCC(CC)C(=O)[O-].OC1(C(c2ccc(OC(F)(F)F)cc2)c2ccc(OC(F)(F)F)cc2)CC[N+](O)(Cc2ccc(Oc3ccc(Cl)nn3)cc2)CC1` (stereo not shown) [Compound 485], the “Percent Mortality” value is recorded as 100% and the “Percent Growth Inhibition” value is reported as 100%.
Take `CCOC(=O)COc1ccc(C[N+]2([O-])CCC(O)(C(c3ccc(OC(F)(F)F)cc3)c3ccc(OC(F)(F)F)cc3)CC2)cc1` (stereo not shown) [Compound 357]: the “Percent Mortality” value was determined as 0% and the “Percent Growth Inhibition” value is listed as 100%.
The like results for `OC1(C(c2ccccc2Cl)c2ccccc2Cl)CCN(Cc2ccc(Oc3ncccn3)cc2)CC1` [Compound 1] were, in that order, 0% and 57%.
The like results for `CCON=Cc1ccc(C[N+]2(O)CCC(O)(C(c3ccc(OC(F)(F)F)cc3)c3ccc(OC(F)(F)F)cc3)CC2)cc1.O=C([O-])C1CCCCC1` (stereo not shown) [Compound 493] were, in that order, 100% and 100%.
For `COc1cc(OC)cc(C(c2ccc(C(F)(F)F)cc2)C2(O)CCN(Cc3ccc(Oc4ncccn4)cc3)CC2)c1` (stereo not shown) [Compound 5], in that order: 0% and 97%.
On to `CC(C)Oc1ccc(CN2CCC(O)(C(c3ccc(C(F)(F)F)cc3)c3ccc(C(F)(F)F)cc3)CC2)cc1` [Compound 303], for which the “Percent Mortality” value worked out at 100% and the “Percent Growth Inhibition” value worked out at 100%.
Turning to `CC(C)OC(=O)Nc1ccc(CN2CCC(O)(C(c3ccc(OC(F)(F)F)cc3)c3ccc(OC(F)(F)F)cc3)CC2)cc1` [Compound 29], the “Percent Mortality” value is listed as 100% and the “Percent Growth Inhibition” value stood at 100%.
On to `[O-][N+]1(Cc2ccc(Oc3ncccn3)cc2)CCC(O)(C(O)(c2ccc(OC(F)(F)F)cc2)c2ccc(OC(F)(F)F)cc2)CC1` (stereo not shown) [Compound 422], for which the “Percent Mortality” value was determined as 100% and the “Percent Growth Inhibition” value turned out to be 100%.
For the molecule `CCON=Cc1ccc(C[N+]2(O)CCC(O)(C(c3ccc(OC(F)(F)F)cc3)c3ccc(OC(F)(F)F)cc3)CC2)cc1.CCS(=O)(=O)[O-]` (stereo not shown) [Compound 491], the “Percent Mortality” value amounted to 100% and the “Percent Growth Inhibition” value was found to be 100%.
Turning to `OC1(C(c2ccc(Br)cc2)c2ccc(OC(F)(F)F)cc2)CCN(Cc2ccc(Oc3ccccn3)cc2)CC1` (stereo not shown) [Compound 261], the “Percent Mortality” value is 100% and the “Percent Growth Inhibition” value was determined as 100%.
Turning to `[O-][N+]1(Cc2ccc(Oc3ccccn3)cc2)CCC(O)(C(c2ccc(OC(F)(F)F)cc2)c2cccc(Cl)c2Cl)CC1` (stereo not shown) [Compound 456], the “Percent Mortality” value is reported as 100% and the “Percent Growth Inhibition” value is on record as 100%.
`OC1(C(c2ccc(OC(F)F)cc2)c2ccc(OC(F)(F)F)cc2)CCN(Cc2ccc(Oc3ccccn3)cc2)CC1` (racemic) [Compound 269]: the “Percent Mortality” value was determined as 100% and the “Percent Growth Inhibition” value is recorded as 100%.
Consider `O=S(=O)([O-])C(F)(F)C(F)(F)C(F)(F)C(F)(F)C(F)(F)C(F)(F)C(F)(F)C(F)(F)F.OC1(C(c2ccc(OC(F)(F)F)cc2)c2ccc(OC(F)(F)F)cc2)CC[N+](O)(Cc2ccc(Oc3ccccn3)cc2)CC1` (stereo not shown) [Compound 496], for which the “Percent Mortality” value is 100% and the “Percent Growth Inhibition” value was determined as 100%.
Consider `[O-][N+]1(Cc2ccc(Oc3ccc(Cl)nn3)cc2)CCC(O)(C(O)(c2ccc(OC(F)(F)F)cc2)c2ccc(OC(F)(F)F)cc2)CC1` (stereo not shown) [Compound 425], for which the “Percent Mortality” value came to 100% and the “Percent Growth Inhibition” value is given as 100%.
Take `CC1(C)COC(c2ccc(CN3CCC(O)(C(c4ccc(OC(F)(F)F)cc4)c4ccc(OC(F)(F)F)cc4)CC3)cc2)OC1` [Compound 280]: the “Percent Mortality” value is on record as 100% and the “Percent Growth Inhibition” value was 100%.
In the case of `OC1(C(c2ccc(C(F)(F)F)cc2)c2ccc(C(F)(F)F)cc2)CCN(Cc2ccc(Oc3ncccn3)cc2)CC1` [Compound 16], the “Percent Mortality” value is given as 100% and the “Percent Growth Inhibition” value stood at 100%.
On to `OC(c1ccc(CN2CCC(O)(C(c3ccc(OC(F)(F)F)cc3)c3ccc(OC(F)(F)F)cc3)CC2)cc1)c1ccccn1` (racemic) [Compound 282], for which the “Percent Mortality” value amounted to 100% and the “Percent Growth Inhibition” value turned out to be 100%.
On to `CCON=Cc1ccc(C[N+]2([O-])CCC(O)(C(c3ccc(Cl)cc3)c3ccc(OC(F)(F)F)cc3)CC2)cc1` (stereo not shown) [Compound 405], for which the “Percent Mortality” value came out at 100% and the “Percent Growth Inhibition” value is 100%.
Take `Cc1ccc(C(c2ccc(OC(F)(F)F)cc2)C2(O)CCN(Cc3ccc(Oc4ccccn4)cc3)CC2)cc1` (stereo not shown) [Compound 262]: the “Percent Mortality” value was 100% and the “Percent Growth Inhibition” value amounted to 100%.
For `[O-][N+]1(Cc2ccc(Oc3ccccn3)cc2)CCC(O)(C(c2ccc(Cl)cc2)c2ccc(OC(F)(F)F)cc2)CC1` (stereo not shown) [Compound 391], the “Percent Mortality” value is given as 100% and the “Percent Growth Inhibition” value is on record as 100%.
